# Measurements as given in article PMC7598995, “HT-SuMD: making molecular dynamics simulations suitable for fragment-based screening. A comparative study with NMR” (Journal of Enzyme Inhibition and Medicinal Chemistry, 2020).
# Target: T1, Bcl-XL (Homo sapiens, UniProt Q07817)
# T1 construct: gene BCL2L1; human Bcl-XL lacking the C-terminus domain (Δ209-233), 6His-tagged
# Experiment: NMR: […] SOFAST-HMQC titration, plus STD and WaterLOGSY
# Type: binding
# T1 sequence (Q07817 1-208): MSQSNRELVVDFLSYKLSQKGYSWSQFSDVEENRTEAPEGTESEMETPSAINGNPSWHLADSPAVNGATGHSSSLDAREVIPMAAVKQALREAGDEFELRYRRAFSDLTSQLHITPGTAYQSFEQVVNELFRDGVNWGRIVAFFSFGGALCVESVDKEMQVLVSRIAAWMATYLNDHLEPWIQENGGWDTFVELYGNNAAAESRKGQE
structure (smiles),measurement,value
"Oc1ccccc1Cc1ccccc1 [compound 222, fragment 222]",Kd,1000 ± 400 µM
